Source: patent US8835429B2, “Pyrimidine compounds, their use as mTOR kinase and Pl3 kinase inhibitors, and their syntheses” (Wyeth LLC, priority 2009, dated 2014)

How the values were obtained:
[1] = target: mTOR (Homo sapiens, UniProt P42345); test: mTOR enzyme assay (DELFIA, purified FLAG-TOR, His6-S6K substrate); assay type: biochemical; parameters: FLAG; settings: 100 μM ATP, 2 hours
[2] = target: PI3K-alpha (Homo sapiens, UniProt P42336); test: PI3K-alpha fluorescence polarization assay; assay type: biochemical; settings: 20 μM PIP2, 25 μM ATP; read-out: PI3Kα IC50
PI3K-alpha, sequence (P42336 whole entry, species assumed): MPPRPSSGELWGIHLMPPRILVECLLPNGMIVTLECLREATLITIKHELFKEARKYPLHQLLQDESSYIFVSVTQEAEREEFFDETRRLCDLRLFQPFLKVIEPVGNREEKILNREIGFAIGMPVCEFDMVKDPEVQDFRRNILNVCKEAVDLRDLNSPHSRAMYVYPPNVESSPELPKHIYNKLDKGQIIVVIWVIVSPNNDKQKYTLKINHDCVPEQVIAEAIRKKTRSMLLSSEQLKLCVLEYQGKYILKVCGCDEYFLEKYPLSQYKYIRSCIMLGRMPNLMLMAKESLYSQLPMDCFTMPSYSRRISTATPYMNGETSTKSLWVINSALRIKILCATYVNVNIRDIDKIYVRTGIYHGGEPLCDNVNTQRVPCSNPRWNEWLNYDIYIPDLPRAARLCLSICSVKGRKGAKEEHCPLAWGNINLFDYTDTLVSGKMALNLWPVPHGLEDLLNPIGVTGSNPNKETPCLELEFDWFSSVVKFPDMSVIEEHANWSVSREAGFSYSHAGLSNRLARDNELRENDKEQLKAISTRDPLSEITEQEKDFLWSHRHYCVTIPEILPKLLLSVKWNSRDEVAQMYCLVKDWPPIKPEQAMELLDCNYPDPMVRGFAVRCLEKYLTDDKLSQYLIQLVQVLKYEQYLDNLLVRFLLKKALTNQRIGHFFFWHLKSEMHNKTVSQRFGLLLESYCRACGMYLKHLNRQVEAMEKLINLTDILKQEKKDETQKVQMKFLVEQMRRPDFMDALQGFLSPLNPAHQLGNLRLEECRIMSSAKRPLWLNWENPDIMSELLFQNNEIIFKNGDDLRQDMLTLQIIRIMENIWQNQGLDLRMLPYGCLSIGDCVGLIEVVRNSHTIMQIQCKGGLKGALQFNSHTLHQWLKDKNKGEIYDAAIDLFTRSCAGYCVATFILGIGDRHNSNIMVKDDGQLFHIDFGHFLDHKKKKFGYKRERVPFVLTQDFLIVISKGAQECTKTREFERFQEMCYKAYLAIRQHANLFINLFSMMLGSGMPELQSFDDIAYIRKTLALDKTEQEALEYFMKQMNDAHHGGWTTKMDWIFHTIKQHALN
PI3K-alpha, sequence (P27986 whole entry partner, species assumed): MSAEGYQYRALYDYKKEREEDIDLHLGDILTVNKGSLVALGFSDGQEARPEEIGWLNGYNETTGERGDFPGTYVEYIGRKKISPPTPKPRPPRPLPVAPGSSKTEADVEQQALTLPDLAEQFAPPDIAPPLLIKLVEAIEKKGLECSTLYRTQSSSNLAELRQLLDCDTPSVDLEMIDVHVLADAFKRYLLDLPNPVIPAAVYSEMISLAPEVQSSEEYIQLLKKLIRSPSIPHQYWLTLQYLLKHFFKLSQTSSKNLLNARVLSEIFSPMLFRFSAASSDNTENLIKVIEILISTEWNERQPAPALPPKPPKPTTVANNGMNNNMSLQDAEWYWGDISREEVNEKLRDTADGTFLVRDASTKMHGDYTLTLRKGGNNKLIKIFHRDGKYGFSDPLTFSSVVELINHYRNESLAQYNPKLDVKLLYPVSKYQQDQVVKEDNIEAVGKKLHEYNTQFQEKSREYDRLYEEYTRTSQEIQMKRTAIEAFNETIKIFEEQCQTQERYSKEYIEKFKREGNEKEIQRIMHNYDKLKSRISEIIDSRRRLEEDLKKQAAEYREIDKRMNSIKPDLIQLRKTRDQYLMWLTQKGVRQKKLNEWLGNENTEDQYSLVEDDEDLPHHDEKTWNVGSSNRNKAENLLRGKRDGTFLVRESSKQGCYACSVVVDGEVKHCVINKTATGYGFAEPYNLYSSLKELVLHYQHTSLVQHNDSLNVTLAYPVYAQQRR
Experimental: The reaction buffer was 20 mM HEPES, pH 7.5, 2 mM MgCl2, 0.05% CHAPS; and 0.01% βME (added fresh). The stop/detection buffer was 100 mM HEPES, pH 7.5, 4 mM EDTA, 0.05% CHAPS; ATP 20 mM in water; PIP2 (diC8, Echelon, Salt Lake City Utah cat #P-4508) 1 mM in water (MW=856.5). The GST-GRP was 1.75 mg/mL or 1.4 mg/mL in 10% glycerol. The red detector (TAMRA) was 2.5 μM. Nunc 384-well black polypropylene fluorescent plates were used for PI3K assays.
The assay is run by placing 5 μL of diluted enzyme per well, then 5 μL of diluted compound (or 9.5 μL enzyme then 0.5 μL compound in DMSO) is added and mixed. Then, 10 μL substrate is added to start the reaction. The samples are incubated 30-60 minutes, then the reaction is stopped by adding 20 μL stop/detector mix. PI3K is diluted with reaction buffer (e.g., 5 μL or 7.5 μL PI3K into 620 μL reaction buffer), and 5 μL of diluted enzyme is used per well. A 5 μL portion of reaction buffer or of drug diluted in buffer (e.g., 4 μL/100 so final DMSO is 1% in reaction) is added to each. Pipetting up and down mixes the samples. Alternatively, the enzyme can be diluted to 1215 μL. In this case 9.8 μL is added per well and 0.2 μL compound is added in DMSO.
To prepare 1 mL of substrate solution, 955 μL reaction buffer, 40 μL PIP2, and 2.5 μL ATP are mixed. 10 μL of substrate is added to each well to start the reaction. […] The stop/detector mix is prepared by mixing 4 μL red detector and 1.6 μL or 2.0 μL GST-GRP with 1 mL stop buffer, which results in 10 nM probe and 70 nM GST-GRP. 20 μL of the stop/detector mix is added to each well to stop the reaction. The plates are read after 30-90 minutes keeping the red probe solutions dark. For the zero time point, stop/detector mix is added to the enzyme just before adding substrate. For an extra control, stop/detector mix is added to buffer (no enzyme) and substrate or to just buffer (no substrate). […] The recommended reaction has 0.06 μL per 20 μL (0.015 μg/20 μL) or 0.01125 μg/15 μL or 0.75 μg/mL.
Plates are read on machines with filters for TAMRA. The units are mP with no enzyme controls reading app 190-220 mP units. Fully active enzyme reduces fluorescence polarization down to 70-100 mP after 30 minutes. An active compound raises the mP values halfway to control or to 120-150 mP units.

[3] = tested on: LNCap; test: In vitro cell growth assay (MTS), LNCap; assay type: cell-based; settings: LNCaP, 72 h, human prostate line, three days after drug treatment
Experimental: (§1) The cell lines used were human prostate lines LNCap and PC3MM2, human breast lines MDA468 and MCF7, human renal line HTB44 (A498), human colon line HCT116, and human ovarian line OVCAR3. Cells were plated in 96-well culture plates. One day following plating, the inhibitors were added to cells. Three days after drug treatment, viable cell densities were determined by metabolic conversion (by viable cells) of the dye MTS, a well-established cell proliferation assay. The assays were performed using an assay kit purchased from Promega Corp. (Madison, Wis.) following the protocol supplied with the kit. The MTS assay results were read in a 96-well plate reader by measuring absorbance at 490 nm. The effect of each treatment was calculated as percent of control growth relative to the vehicle-treated cells grown in the same culture plate.

[4] = tested on: MDA468; test: In vitro cell growth assay (MTS), MDA468; assay type: cell-based; settings: 72 h, human breast line MDA468, three days after drug treatment, read-out: MDA IC50
Experimental: as §1

mTOR, sequence (P42345 1360-2549 limits assumed): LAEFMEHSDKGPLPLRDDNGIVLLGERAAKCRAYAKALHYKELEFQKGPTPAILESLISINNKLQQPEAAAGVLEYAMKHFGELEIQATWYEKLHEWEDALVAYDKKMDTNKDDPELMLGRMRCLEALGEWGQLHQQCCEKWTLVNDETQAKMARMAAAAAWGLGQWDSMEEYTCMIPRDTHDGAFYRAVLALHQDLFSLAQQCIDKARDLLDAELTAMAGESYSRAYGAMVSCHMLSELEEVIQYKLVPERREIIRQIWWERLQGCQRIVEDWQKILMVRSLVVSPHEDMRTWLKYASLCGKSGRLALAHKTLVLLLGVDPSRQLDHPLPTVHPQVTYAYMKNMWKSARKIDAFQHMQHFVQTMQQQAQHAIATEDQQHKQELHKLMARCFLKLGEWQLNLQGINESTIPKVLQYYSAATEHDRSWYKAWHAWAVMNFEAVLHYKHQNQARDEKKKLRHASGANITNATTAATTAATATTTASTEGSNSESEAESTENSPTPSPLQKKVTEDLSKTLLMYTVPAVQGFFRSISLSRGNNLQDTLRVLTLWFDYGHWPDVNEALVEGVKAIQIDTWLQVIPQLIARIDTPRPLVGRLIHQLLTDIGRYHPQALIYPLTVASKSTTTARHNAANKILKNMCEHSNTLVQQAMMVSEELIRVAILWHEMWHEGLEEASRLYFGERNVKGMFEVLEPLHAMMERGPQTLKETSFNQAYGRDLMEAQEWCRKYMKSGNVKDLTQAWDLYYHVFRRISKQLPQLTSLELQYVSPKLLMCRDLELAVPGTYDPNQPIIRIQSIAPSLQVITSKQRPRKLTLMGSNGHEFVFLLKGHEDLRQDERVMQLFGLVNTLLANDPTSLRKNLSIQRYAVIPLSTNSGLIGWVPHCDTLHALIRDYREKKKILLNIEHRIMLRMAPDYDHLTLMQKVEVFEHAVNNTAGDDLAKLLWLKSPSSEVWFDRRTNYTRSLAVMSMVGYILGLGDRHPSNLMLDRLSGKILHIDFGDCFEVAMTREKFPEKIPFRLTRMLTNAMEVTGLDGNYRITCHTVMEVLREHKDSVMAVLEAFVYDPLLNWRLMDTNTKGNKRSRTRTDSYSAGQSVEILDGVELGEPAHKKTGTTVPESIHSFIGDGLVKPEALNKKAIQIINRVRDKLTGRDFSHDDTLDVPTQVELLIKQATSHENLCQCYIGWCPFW

Row | SMILES | IC50 [1] [nM] | IC50 [2] [nM] | IC50 [3] [nM] | IC50 [4] [nM]
1 | CNC(=O)Nc1ccc(-c2nc(CS(C)(=O)=O)cc(N3CC4CCC(C3)O4)n2)cc1 [1-methyl-3-(4-{4-[(methylsulfonyl)methyl]-6-(8-oxa-3-azabicyclo[3.2.1]oct-3-yl)pyrimidin-2-yl}phenyl)urea] | 13.5 | 1730 | 2050 | 3300
2 | CNC(=O)Nc1ccc(-c2nc(-c3ccccc3)cc(N3CC4CCC(C3)O4)n2)cc1 [1-methyl-3-{4-[4-(8-oxa-3-azabicyclo[3.2.1]oct-3-yl)-6-phenylpyrimidin-2-yl]phenyl}urea] | 22 | 953 | 510 | 2000
3 | CNC(=O)Nc1ccc(-c2nccc(N3CC4CCC(C3)O4)n2)cc1 [1-methyl-3-{4-[4-(8-oxa-3-azabicyclo[3.2.1]oct-3-yl)pyrimidin-2-yl]phenyl}urea] | 132 | 1840 | 2500 | 10500
4 | CN(C)CCOc1ccc(NC(=O)Nc2ccc(-c3nc(N4C5CCC4COC5)cc(N4C5CCC4COC5)n3)cc2)cc1 [1-{4-[2-(dimethylamino)ethoxy]phenyl}-3-[4-(4,6-di-3-oxa-8-azabicyclo[3.2.1]oct-8-ylpyrimidin-2-yl)phenyl]urea] | 2.5 | 1540 | 4 | 9
5 | CN(C)CCOc1ccc(NC(=O)Nc2ccc(-c3nc(-c4ccccc4)cc(N4CC5CCC(C4)O5)n3)cc2)cc1 [1-{4-[2-(dimethylamino)ethoxy]phenyl}-3-{4-[4-(8-oxa-3-azabicyclo[3.2.1]oct-3-yl)-6-phenylpyrimidin-2-yl]phenyl}urea] | 19 | 141 | 120 | 300
6 | CC(C)Nc1cc(N2C3CCC2COC3)nc(-c2ccc(NC(=O)Nc3ccc(OCCN(C)C)cc3)cc2)n1 [1-{4-[2-(dimethylamino)ethoxy]phenyl}-3-{4-[4-(isopropylamino)-6-(3-oxa-8-azabicyclo[3.2.1]oct-8-yl)pyrimidin-2-yl]phenyl}urea] | 3.6 | 2380 | 50 | 710
7 | O=C(Nc1ccncc1)Nc1ccc(-c2nccc(N3CC4CCC(C3)O4)n2)cc1 [1-{4-[4-(8-oxa-3-azabicyclo[3.2.1]oct-3-yl)pyrimidin-2-yl]phenyl}-3-pyridin-4-ylurea] | 14.5 | 224 | 180 | 650
8 | CC(C)Nc1cc(N2C3CCC2COC3)nc(-c2ccc(NC(=O)Nc3ccc(N4CCN(C)CC4)cc3)cc2)n1 [1-{4-[4-(isopropylamino)-6-(3-oxa-8-azabicyclo[3.2.1]oct-8-yl)pyrimidin-2-yl]phenyl}-3-[4-(4-methylpiperazin-1-yl)phenyl]urea] | 2.7 | 2000 | 19 | 34
9 | CC(C)Nc1cc(N2C3CCC2COC3)nc(-c2ccc(NC(=O)Nc3ccc(N4CCN(C)CC4)nc3)cc2)n1 [1-{4-[4-(isopropylamino)-6-(3-oxa-8-azabicyclo[3.2.1]oct-8-yl)pyrimidin-2-yl]phenyl}-3-[6-(4-methylpiperazin-1-yl)pyridin-3-yl]urea] | 4.2 | 3870 | 90 | 100
10 | CC(C)Nc1cc(N2C3CCC2COC3)nc(-c2ccc(NC(=O)Nc3ccncc3)cc2)n1 [1-{4-[4-(isopropylamino)-6-(3-oxa-8-azabicyclo[3.2.1]oct-8-yl)pyrimidin-2-yl]phenyl}-3-pyridin-4-ylurea] | 1.4 | 2500 | 13 | 29
11 | CC(C)Nc1cc(N2C3CCC2COC3)nc(-c2ccc(NC(=O)Nc3ccc(CN4CCN(C)CC4)cc3)cc2)n1 [1-{4-[4-(isopropylamino)-6-(3-oxa-8-azabicyclo[3.2.1]oct-8-yl)pyrimidin-2-yl]phenyl}-3-{4-[(4-methylpiperazin-1-yl)methyl]phenyl}urea] | 3.2 | 3410 | 70 | 110

The next lines start with results.

Row | IC50 [1] [nM] | IC50 [2] [nM] | IC50 [3] [nM] | SMILES | IC50 [4] [nM]
12 | 3 | 700 | 190 | CNC(=O)Nc1ccc(-c2nc(OC(C)C)cc(N3CC4CCC(C3)O4)n2)cc1 [1-methyl-3-{4-[4-(1-methylethoxy)-6-(8-oxa-3-azabicyclo[3.2.1]oct-3-yl)pyrimidin-2-yl]phenyl}urea] | 890
13 | 11.5 | 1550 | 670 | CNC(=O)Nc1ccc(-c2nc(N3CC4CCC(C3)O4)cc(C(F)(F)F)n2)cc1 [1-methyl-3-{4-[4-(8-oxa-3-azabicyclo[3.2.1]oct-3-yl)-6-(trifluoromethyl)pyrimidin-2-yl]phenyl}urea] | 2100
14 | 5 | 405 | 90 | CN(C)CCOc1ccc(NC(=O)Nc2ccc(-c3nc(CS(C)(=O)=O)cc(N4CC5CCC(C4)O5)n3)cc2)cc1 [1-{4-[2-(dimethylamino)ethoxy]phenyl}-3-(4-{4-[(methylsulfonyl)methyl]-6-(8-oxa-3-azabicyclo[3.2.1]oct-3-yl)pyrimidin-2-yl}phenyl)urea] | 165
15 | 3.32 | 518 | 30 | CC(C)Oc1cc(N2CC3CCC(C2)O3)nc(-c2ccc(NC(=O)Nc3ccc(N4CCN(C)CC4)cc3)cc2)n1 [1-{4-[4-(1-methylethoxy)-6-(8-oxa-3-azabicyclo[3.2.1]oct-3-yl)pyrimidin-2-yl]phenyl}-3-[4-(4-methylpiperazin-1-yl)phenyl]urea] | 105
16 | 1.35 | 264 | 23 | CC(C)Oc1cc(N2CC3CCC(C2)O3)nc(-c2ccc(NC(=O)Nc3ccncc3)cc2)n1 [1-{4-[4-(1-methylethoxy)-6-(8-oxa-3-azabicyclo[3.2.1]oct-3-yl)pyrimidin-2-yl]phenyl}-3-pyridin-4-ylurea] | 180
17 | 2.45 | 280 | 50 | O=C(Nc1ccncc1)Nc1ccc(-c2nc(N3CC4CCC(C3)O4)cc(C(F)(F)F)n2)cc1 [1-{4-[4-(8-oxa-3-azabicyclo[3.2.1]oct-3-yl)-6-(trifluoromethyl)pyrimidin-2-yl]phenyl}-3-pyridin-4-ylurea] | 250
18 | 5.6 | 229 | 290 | O=C(Nc1ccncc1)Nc1ccc(-c2nc(-c3ccccc3)cc(N3CC4CCC(C3)O4)n2)cc1 [1-{4-[4-(8-oxa-3-azabicyclo[3.2.1]oct-3-yl)-6-phenylpyrimidin-2-yl]phenyl}-3-pyridin-4-ylurea] | 390
19 | 4.05 | 520 | 80 | CN1CCN(Cc2ccc(NC(=O)Nc3ccc(-c4nc(CS(C)(=O)=O)cc(N5CC6CCC(C5)O6)n4)cc3)cc2)CC1 [1-{4-[(4-methylpiperazin-1-yl)methyl]phenyl}-3-(4-{4-[(methylsulfonyl)methyl]-6-(8-oxa-3-azabicyclo[3.2.1]oct-3-yl)pyrimidin-2-yl}phenyl)urea] | 140
20 | 4.15 | 63.5 | 1100 | CNCc1ccc(NC(=O)Nc2ccc(-c3nc(CS(C)(=O)=O)cc(N4CC5CCC(C4)O5)n3)cc2)cc1 [1-{4-[(methylamino)methyl]phenyl}-3-(4-{4-[(methylsulfonyl)methyl]-6-(8-oxa-3-azabicyclo[3.2.1]oct-3-yl)pyrimidin-2-yl}phenyl)urea] | 1560
